{"source": "patent US11788060B2", "about": "“Small molecule compound composition that efficiently induces differentiation of human pluripotent stem cells into myocardial cells” (Shanghai Institute of Nutrition and Health, Chinese Academy …, priority 2016, dated 2023)", "key": {"[1]": {"tested_on": "Parp", "test": "Western blot of Parp cleavage", "assay_type": "cell-based, human", "settings": "first 4 days of treatment", "text": "Wherein figure (A and B) show the influence of different small molecules on proliferation rate of the stem cells by means of cell cycle analysis and BrdU proliferation detection. (C) Western blot analysis of intracellular Parp protein cleavage to estimate cell death under different treatment. (D) Influence of rapamycin on activity of apoptosis executive caspase 3/7 determined by luciferase reporter system. (E) Detection of the proportion of cell death treated with or without rapamycin by Annexin V/PI staining at the end of the culture on day 3 and day 4. […] All the results are statistically analyzed for at least 3 independently repeated experiments (* P<0.05, ** P<0.01).\nCaspase 3, 6, and 7 are the execution proteins of apoptosis and are mainly responsible for the cleavage of structural proteins and regulatory proteins in the nucleus and cytoplasm."}, "[2]": {"tested_on": "stem cells", "test": "Annexin V/PI staining of apoptosis and cell death", "assay_type": "cell-based, human", "description": "Annexin V/PI staining: Annexin V/PI kit (Roche) was used in this experiment. The cells were cultured in 24-well plates. At the specified time, the cells were digested into single cells with accutase and washed once with PBS. The cells were incubated with staining solution containing Annexin V and PI for 10 minutes. Care was taken to avoid light. 5 volumes of incubation solution was added to dilute thereby stopping the reaction and tested by flow cytometry immediately, the excitation lights were 488 nm and 518 nm, the emission lights were 488-540 nm and 617 nm."}, "[3]": {"tested_on": "stem cells", "test": "Cell cycle analysis and BrdU cell proliferation assay", "assay_type": "cell-based, human", "settings": "compared with DMSO control group", "description": "After 10 μM BrdU (Sigma-Aldrich) was added to incubate the cells for 1 hour, cells were harvested, digested and centrifuged at 300 g for 5 minutes. Cells were collected, washed once with PBS containing 0.5% BSA (wash solution) at room temperature, and resuspended in 1 ml of PBS. 3 ml of pre-cooled ethanol was added with shaking and settled for 20 minutes at room temperature. Centrifuge to remove the supernatant, wash once with PBS, centrifuge to remove supernatant, loosen the pellet by flicking a few times, add 1 ml of the freshly prepared denaturation solution (2M HCl) and mix. Allow to stand at room temperature for 20 minutes; add 1 ml of 0.1 M sodium borate (pH 8.5) to neutralize for 2 minutes at room temperature; rinse once and add anti-BrdU antibody (BD Biosciences 1:50 dilution) prepared with PBS containing 0.5% Tween 20/0.5% BSA (Sigma-Aldrich); aspirate primary antibody, rinse with 1 ml wash solution, add Alexa-488-anti-mouse (1:1000), incubate for 20 minutes at room temperature; aspirate secondary antibody, rinse again, resuspend with 0.5 ml 10 μg/ml PI solution and incubate for 30 minutes at room temperature. The supernatant was removed by centrifugation, rinsed again with a wash solution, and tested with flow cytometry."}, "[4]": {"tested_on": "human embryonic stem cells", "test": "Cell count of stem cells in high-density monolayer culture", "assay_type": "cell-based", "settings": "DMSO, CHIR or CHIR+rapamycin; 5×10^4/cm^2, days 1-4", "description": "The correlated detection was performed under three treatment conditions of DMSO, CHIR and CHIR+rapamycin. […] (Due to the replacement of the culture medium on the 4th day, stem cells underwent massive death because of the rapid changes in the environment)."}}}
{"smiles": "Cc1c[nH]c(-c2cnc(NCCNc3ccc(C#N)cn3)nc2-c2ccc(Cl)cc2Cl)n1", "note": "[CHIR99021]", "values": [{"measurement": "Parp cleavage band", "setting": "[1]", "value": "gradually increased"}, {"measurement": "proportion of cell death", "setting": "[2]; 4th day, 24 hours after replacing with RPMI/B27 differentiation medium", "value": "nearly half"}, {"measurement": "Annexin V-positive apoptotic cells", "setting": "[2]; end of culture on the third day", "value": 25.8, "unit": "%"}, {"measurement": "proportion of cells in S phase and proportion of BrdU positive cells", "setting": "[3]", "value": "slightly increased"}, {"measurement": "stem cell number", "setting": "[4]", "value": "accelerated the increase in stem cell number in the first 3 days"}]}
